US10435361B2, “Kinase inhibitors” (Topivert Pharma Limited, priority 2013, dated 2019)

Tested on: PBMCs
Test: LPS-induced TNFα/IL-8 release in PBMC cells
Type: cell-based
Conditions: Homo sapiens, assay (b), read-out: IC50 Values for Inhibition of Cytokine Release PBMCs IL-8
Description: Peripheral blood mononuclear cells (PBMCs) from healthy subjects are separated from whole blood using a density gradient (Lymphoprep, Axis-Shield Healthcare). The PBMCs are seeded in 96 well plates and treated with compounds at the desired concentration for 2 hours before addition of 1 ng/mL LPS (Escherichia Coli 0111:B4 from Sigma Aldrich) for 24 hours under normal tissue culture conditions (37° C., 5% CO2). The supernatant is harvested for determination of IL-8 and TNFα concentrations by sandwich ELISA (Duo-set, R&D systems) and read on the fluorescence microplate reader (Varioskan® Flash, ThermoFisher Scientific).

Structure (SMILES) | IC50 [nM]
COCCOCCOCCOc1cc(Nc2nccc(Oc3ccc(NC(=O)Nc4cc(C(C)(C)C)ccc4OC)c4ccccc34)n2)cc(OC)c1 [Example 8, 1-(5-(tert-Butyl)-2-methoxyphenyl)-3-(4-((2-((3-methoxy-5-(2-(2-(2-methoxyethoxy)ethoxy)-ethoxy)phenyl)amino)pyrimidin-4-yl)oxy)naphthalen-1-yl)urea] | 28.1
C#Cc1cc(Nc2nccc(Oc3ccc(NC(=O)Nc4cc(C(C)(C)C)cc(C(=O)NC)c4OC)c4ccccc34)n2)cc(C(=O)NCCN2CCOCC2)c1 [Example 9, 5-(tert-Butyl)-3-(3-(4-((2-((3-ethynyl-5-((2-morpholinoethyl)carbamoyl)phenyl)amino)-pyrimidin-4-yl)oxy)naphthalen-1-yl)ureido)-2-methoxy-N-methylbenzamide] | 1.2
COCCOCCOCCOc1cc(Nc2nccc(Oc3ccc(NC(=O)Nc4cc(C(C)(C)C)cc(C(=O)N(C)C)c4OC)c4ccccc34)n2)cc(OC)c1 [Example 19, 5-(tert-Butyl)-2-methoxy-3-(3-(4-((2-((3-methoxy-5-(2-(2-(2-methoxyethoxy)ethoxy)-ethoxy)phenyl)amino)pyrimidin-4-yl)oxy)naphthalen-1-yl)ureido)-N,N-dimethylbenzamide] | 8.7
COCCOCCOCCOc1cc(Nc2nccc(Oc3ccc(NC(=O)Nc4cc(C(C)(C)C)cc(C(=O)O)c4OC)c4ccccc34)n2)cc(OC)c1 [Example 21, 5-(tert-Butyl)-2-methoxy-3-(3-(4-((2-((3-methoxy-5-(2-(2-(2-methoxyethoxy)ethoxy)-ethoxy)phenyl)amino)pyrimidin-4-yl)oxy)naphthalen-1-yl)ureido)benzoic acid] | 34.4
COCCOCCOCCOc1cc(Nc2nccc(Oc3ccc(NC(=O)Nc4cc(C(C)(C)C)cc(C#N)c4OC)c4ccccc34)n2)cc(OC)c1 [Example 22, 1-(5-(tert-Butyl)-3-cyano-2-methoxyphenyl)-3-(4-((2-((3-methoxy-5-(2-(2-(2-methoxy-ethoxy)ethoxy)ethoxy)phenyl)amino)pyrimidin-4-yl)oxy)naphthalen-1-yl)urea] | 16.9
COCCOCCOCCOc1cc(Nc2nccc(Oc3ccc(NC(=O)Nc4cc(C(C)(C)C)cc(N)c4OC)c4ccccc34)n2)cc(OC)c1 [Example 25, 1-(3-Amino-5-(tert-butyl)-2-methoxyphenyl)-3-(4-((2-((3-methoxy-5-(2-(2-(2-methoxy-ethoxy)ethoxy)ethoxy)phenyl)amino)pyrimidin-4-yl)oxy)naphthalen-1-yl)urea] | 7
COc1cc(Nc2nccc(Oc3ccc(NC(=O)Nc4cc(C(C)(C)C)cc(NS(C)(=O)=O)c4OC)c4ccccc34)n2)cc(C(=O)NCCOCCOCCC(=O)O)c1 [Example 26, 3-(2-(2-(3-((4-((4-(3-(5-(tert-Butyl)-2-methoxy-3-(methylsulfonamido)phenyl)ureido)-naphthalen-1-yl)oxy)pyrimidin-2-yl)amino)-5-methoxybenzamido)ethoxy)ethoxy)-propanoic acid] | 21.7
COCCOCCOCCOc1cc(Nc2nccc(Oc3ccc(NC(=O)Nc4cc(C(C)(C)C)cc(Nc5ncccn5)c4OC)c4ccccc34)n2)cc(OC)c1 [Example 28, 1-(5-(tert-Butyl)-2-methoxy-3-(pyrimidin-2-ylamino)phenyl)-3-(4-((2-((3-methoxy-5-(2-(2-(2-methoxyethoxy)ethoxy)ethoxy)phenyl)amino)pyrimidin-4-yl)oxy)naphthalen-1-yl)urea] | 11.9
COc1cc(Nc2nccc(Oc3ccc(NC(=O)Nc4cc(C(C)(C)C)cc(NS(C)(=O)=O)c4OC)c4ccccc34)n2)cc(OCCOCCOCCC(=O)O)c1 [Example 30, 3-(2-(2-(3-((4-((4-(3-(5-(tert-Butyl)-2-methoxy-3-(methylsulfonamido)phenyl)ureido)-naphthalen-1-yl)oxy)pyrimidin-2-yl)amino)-5-methoxyphenoxy)ethoxy)ethoxy)propanoic acid] | 5.7
COc1cc(Nc2nccc(Oc3ccc(NC(=O)Nc4cc(C(C)(C)C)cc(NS(C)(=O)=O)c4OC)c4ccccc34)n2)cc(OCCOCCC(=O)O)c1 [Example 31, 3-(2-(3-((4-((4-(3-(5-(tert-Butyl)-2-methoxy-3-(methylsulfonamido)phenyl)ureido)-naphthalen-1-yl)oxy)pyrimidin-2-yl)amino)-5-methoxyphenoxy)ethoxy)propanoic acid] | 7.2
CNC(=O)c1cc(N2CCOCC2)cc(NC(=O)Nc2ccc(Oc3ccnc(Nc4cc(OC)cc(OCCOCCOCCOC)c4)n3)c3ccccc23)c1OC [Example 32, 2-Methoxy-3-(3-(4-((2-((3-methoxy-5-(2-(2-(2-methoxyethoxy)ethoxy)ethoxy)phenyl)-amino)pyrimidin-4-yl)oxy)naphthalen-1-yl)ureido)-N-methyl-5-morpholinobenzamide] | 7.7
COCCOCCOCCOc1cc(Nc2nccc(Oc3ccc(NC(=O)Nc4cc(C(C)(C)C)cc(C(=O)NC5CC5)c4OC)c4ccccc34)n2)cc(OC)c1 [Example 33, 5-(tert-Butyl)-N-cyclopropyl-2-methoxy-3-(3-(4-((2-((3-methoxy-5-(2-(2-(2-methoxy-ethoxy)ethoxy)ethoxy)phenyl)amino)pyrimidin-4-yl)oxy)naphthalen-1-yl)ureido)-benzamide] | 4.2
COCCOCCOCCOc1cc(Nc2nccc(Oc3ccc(NC(=O)Nc4cc(C(C)(C)C)cc(C(=O)NCc5ccccc5)c4OC)c4ccccc34)n2)cc(OC)c1 [Example 38, N-Benzyl-5-(tert-butyl)-2-methoxy-3-(3-(4-((2-((3-methoxy-5-(2-(2-(2-methoxyethoxy)-ethoxy)ethoxy)phenyl)amino)pyrimidin-4-yl)oxy)naphthalen-1-yl)ureido)benzamide] | 6.3
COCCOCCOCCOCCOCCOCCOCCNC(=O)c1cc(Nc2nccc(Oc3ccc(NC(=O)Nc4cc(C(C)(C)C)cc(NS(C)(=O)=O)c4OC)c4ccccc34)n2)cc(OC)c1 [Example 40, 3-((4-((4-(3-(5-(tert-Butyl)-2-methoxy-3-(methylsulfonamido)phenyl)ureido)naphthalen-1-yl)oxy)pyrimidin-2-yl)amino)-N-(2,5,8,11,14,17,20-heptaoxadocosan-22-yl)-5-methoxy-benzamide] | 3.1
CCNC(=O)c1cc(C(C)(C)C)cc(NC(=O)Nc2ccc(Oc3ccnc(Nc4cc(OC)cc(OCCOCCOCCOC)c4)n3)c3ccccc23)c1OC [Example 41] | 4.5
COCCOCCOCCOc1cc(Nc2nccc(Oc3ccc(NC(=O)Nc4cc(C(C)(C)C)cc(C(=O)NC(C)C)c4OC)c4ccccc34)n2)cc(OC)c1 [Example 42, 5-(tert-Butyl)-N-isopropyl-2-methoxy-3-(3-(4-((2-((3-methoxy-5-(2-(2-(2-methoxyethoxy)-ethoxy)ethoxy)phenyl)amino)pyrimidin-4-yl)ox)naphthalen-1-yl)ureido)benzamide] | 6.6
COCCNC(=O)c1cc(C(C)(C)C)cc(NC(=O)Nc2ccc(Oc3ccnc(Nc4cc(OC)cc(OCCOCCOCCOC)c4)n3)c3ccccc23)c1OC [Example 43, 5-(tert-Butyl)-2-methoxy-3-(3-(4-((2-((3-methoxy-5-(2-(2-(2-methoxyethoxy)ethoxy)-ethoxy)phenyl)amino)pyrimidin-4-yl)oxy)naphthalen-1-yl)ureido)-N-(2-methoxyethyl)-benzamide] | 2
COCCOCCOCCOc1cc(Nc2nccc(Oc3ccc(NC(=O)Nc4cc(C(C)(C)C)cc(C(=O)NCC(=O)O)c4OC)c4ccccc34)n2)cc(OC)c1 [Example 44, 2-(5-(tert-Butyl)-2-methoxy-3-(3-(4-((2-((3-methoxy-5-(2-(2-(2-methoxyethoxy)ethoxy)-ethoxy)phenyl)amino)pyrimidin-4-yl)oxy)naphthalen-1-yl)ureido)benzamido)acetic acid] | 86.8
COc1cc(Nc2nccc(Oc3ccc(NC(=O)Nc4cc(C(C)(C)C)cc(NS(C)(=O)=O)c4OC)c4ccccc34)n2)cc(C(=O)C2CC2)c1 [Example 50, N-(5-(tert-Butyl)-3-(3-(4-((2-((3-(cyclopropanecarbonyl)-5-methoxyphenyl)amino)-pyrimidin-4-yl)oxy)naphthalen-1-yl)ureido)-2-methoxyphenyl)methanesulfonamide] | 12.1
C#Cc1cc(Nc2nccc(Oc3ccc(NC(=O)Nc4cc(C(C)(C)C)cc(C(=O)NC)c4OC)c4ccccc34)n2)cc(C(=O)N[C@@H](C)CN2CCOCC2)c1 [Example 60, (S)-5-(tert-Butyl)-3-(3-(4-((2-((3-ethynyl-5-((1-morpholinopropan-2-yl)carbamoyl)phenyl)amino)pyrimidin-4-yl)oxy)naphthalen-1-yl)ureido)-2-methoxy-N-methylbenzamide] | 2
C#Cc1cc(Nc2nccc(Oc3ccc(NC(=O)Nc4cc(C(C)(C)C)cc(C(=O)NC)c4OC)c4ccccc34)n2)cc(C(=O)N[C@H](C)CN2CCOCC2)c1 [Example 61, (R)-5-(tert-Butyl)-3-(3-(4-((2-((3-ethynyl-5-((1-morpholinopropan-2-yl)carbamoyl)phenyl)amino)pyrimidin-4-yl)oxy)naphthalen-1-yl)ureido)-2-methoxy-N-methylbenzamide] | 2.1
COCCOCCOCCOc1cc(Nc2nccc(Oc3ccc(NC(=O)Nc4cc(C(C)(C)C)cc5[nH]c(=O)oc45)c4ccccc34)n2)cc(OC)c1 [Example 63, 1-(5-(tert-Butyl)-2-oxo-2,3-dihydrobenzo[d]oxazol-7-yl)-3-(4-((2-((3-methoxy-5-(2-(2-(2-methoxyethoxy)ethoxy)ethoxy)phenyl)amino)pyrimidin-4-yl)oxy)naphthalen-1-yl)urea] | 17.3
COCCOCCOCCOc1cc(Nc2nccc(Oc3ccc(NC(=O)Nc4cc(C(C)(C)C)cc5nc(C)oc45)c4ccccc34)n2)cc(OC)c1 [Example 64, 1-(5-(tert-Butyl)-2-methylbenzo[d]oxazol-7-yl)-3-(4-((2-((3-methoxy-5-(2-(2-(2-methoxy-ethoxy)ethoxy)ethoxy)phenyl)amino)pyrimidin-4-yl)oxy)naphthalen-1-yl)urea] | 10.5
